# Laboratory results reported in patent publication US20230407243A1, “GENETIC PLATFORM TO INVESTIGATE THE FUNCTIONS OF BACTERIAL DRUG EFFLUX PUMPS” (priority 2022, published 2023).
# Key:
# ΔtolC gyrB (pCA24N) = format: cell-based, Escherichia coli
# K-12 gyrB (pCA24N) = experiment: MIC of strains harboring ASKA plasmids; format: cell-based; details: Escherichia coli, 0.1 mM IPTG
# K-12 wcaC (pCA24N) = experiment: microbe, parasite or virus in culture; details: Escherichia coli, 0.1 mM IPTG
# Description: (§1) To enable comparison between efflux production in different genetic backgrounds, each efflux pump-encoding gene was also integrated into the genome of the wild-type BW25113 strain, the single gene deletion mutant from the Keio Collection, and EKO-35. Strains of interest were propagated on LB agar at 37° C. Cell inoculum was prepared using the colony resuspension method and applied to a 96-well well plate (VWR) in technical duplicate, and the minimum inhibitory concentrations were determined according to Clinical & Laboratory Standards Institute (CLSI) protocols in MHB II (Patel J. B. et al, 2015). The plates were incubated for 18 h (Multitron Shaker, Infors HT) at 37° C. with aeration at 900 rpm. The plates were equilibrated to room temperature before the OD600 nm was measured using a BioTek Synergy H1 microplate reader. For interplay profiling, blank subtracted OD600 nm values >0.1 were considered to represent growth.
# (§2) To assess fitness of EKO-35 expressing wild-type copies of the genes identified to harbor nonsynonymous mutations, Inventors obtained clones from the E. coli ASKA library (Kitagawa, M. et al., 2005) with the rspA, tufA, pitA, wcaC, gyrB, and yjfC genes carried on plasmids, with gene expression under the control of an IPTG-inducible promoter. The ASKA plasmids were verified using Sanger sequencing and gene expression was induced with 0.1 mM IPTG. In the wild-type E. coli K-12 strain, the plasmids were maintained with 25 μg/mL chloramphenicol.
# ΔtolC wcaC (pCA24N) = experiment: microbe, parasite or virus in culture
# Description: as §1, §2
SMILES,MIC (ΔtolC gyrB (pCA24N)) [µg/mL],MIC (K-12 gyrB (pCA24N); Chlor + (25 μg/mL)) [µg/mL],MIC (K-12 gyrB (pCA24N); Chlor −) [µg/mL],MIC (K-12 wcaC (pCA24N); Chlor + (25 μg/mL)) [µg/mL],MIC (K-12 wcaC (pCA24N); Chlor −) [µg/mL],MIC (ΔtolC wcaC (pCA24N); Escherichia coli) [µg/mL],"MIC (ΔtolC wcaC (pCA24N); ΔtolC wcaC, Chlor +, 0.1 mM IPTG) [µg/mL]"
CO[C@@H]1[C@@H](OC(N)=O)[C@@H](O)[C@H](Oc2ccc3c(O)c(NC(=O)c4ccc(O)c(CC=C(C)C)c4)c(=O)oc3c2C)OC1(C)C [novobiocin],12.5,100,400,,,,
COc1cc(Cc2cnc(N)nc2N)cc(OC)c1OC [trimethoprim],,,,0.195,1.56,0.195,0.195
